What all share (assay): saturation binding of fluorescent ligand, flow cytometry, permeabilized yeast
Assay type in all cases: cell-based
Common to all, as to details: PBS, 1% DMSO, 22 °C, 1 h; apparent affinity; labelled compound (fluorescent ligand itself); no G protein

Assay [1] concerns the target T1, A2aR (Homo sapiens, UniProt P29274, N34K).
T1 construct: gene ADORA2A; full-length receptor with C-terminus (positions to 412), N-terminal synthetic pre-pro leader, no eGFP; pYES2 (subcloned from pITy-MC-His10), permeabilized S. cerevisiae BY4741
The text has this: (§1) saturation binding of fluorescent ligand, flow cytometry, permeabilized yeast on A2aR

For assay [2], the target named is T2, A2aR (Homo sapiens, UniProt P29274, P313S/P354A).
T2 construct: gene ADORA2A; full-length receptor with C-terminus (positions to 412), N-terminal synthetic pre-pro leader, no eGFP; pYES2 (subcloned from pITy-MC-His10), permeabilized S. cerevisiae BY4741
T2 sequence (P29274 whole entry P313S/P354A): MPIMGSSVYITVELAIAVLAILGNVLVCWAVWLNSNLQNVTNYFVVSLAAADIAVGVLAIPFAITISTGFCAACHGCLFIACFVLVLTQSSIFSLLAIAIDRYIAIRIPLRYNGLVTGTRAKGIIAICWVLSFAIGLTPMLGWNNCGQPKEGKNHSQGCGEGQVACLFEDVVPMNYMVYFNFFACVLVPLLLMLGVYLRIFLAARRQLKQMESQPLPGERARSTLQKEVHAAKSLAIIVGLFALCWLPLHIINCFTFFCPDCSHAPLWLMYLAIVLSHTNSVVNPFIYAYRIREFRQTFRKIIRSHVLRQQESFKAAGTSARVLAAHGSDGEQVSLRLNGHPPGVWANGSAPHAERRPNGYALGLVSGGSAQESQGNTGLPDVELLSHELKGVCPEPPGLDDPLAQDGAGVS
Excerpt: as §1

The target in assay [3] is T3, A2aR (Homo sapiens, UniProt P29274).
T3 construct: gene ADORA2A; full-length receptor with C-terminus (positions to 412), N-terminal synthetic pre-pro leader, no eGFP; pYES2 (subcloned from pITy-MC-His10), permeabilized S. cerevisiae BY4741
T3 sequence (P29274 whole entry): as the sequence (P29274 whole entry P313S/P354A) above, with S313P, A354P counted along it
Excerpt: as §1

This is an account of results in paper PMC9126886, “Yeast-based directed-evolution for high-throughput structural stabilization of G protein-coupled receptors (GPCRs)” (Scientific Reports, 2022).

T1 sequence (P29274 whole entry N34K): as the sequence (P29274 whole entry P313S/P354A) above, with N34K, S313P, A354P counted along it

With CA200623, the figures for the “logEC50 ± SE^c” value at A2aR [1], at A2aR [2] and on A2aR [3] were −7.78 ± 0.04, −8.90 ± 0.03 and −8.01 ± 0.06, respectively.
